The values that follow come from paper PMC10281575, “PfCRT mutations conferring piperaquine resistance in falciparum malaria shape the kinetics of quinoline drug binding and transport” (PLOS Pathogens, 2023).

Positions count from the first letter of the chain named. “And” between values parts separate entries of the source, which are not always exact repeats. Equal values may be shown once.

The target in one test is T1, PfCRT^Dd2_G353V (Plasmodium falciparum, UniProt Q8IBZ9, A220S/G353V/I356T/K76T/M74I/N326S/N75E/Q271E/R371I).
T1 construct: expressed in transfected cells; host or cells: Xenopus laevis oocytes injected with in vitro transcribed RNA (pSP64T)
T1 sequence (Q8IBZ9 1-424 M74I/N75E/K76T/A220S/Q271E/N326S/G353V/I356T/R371I): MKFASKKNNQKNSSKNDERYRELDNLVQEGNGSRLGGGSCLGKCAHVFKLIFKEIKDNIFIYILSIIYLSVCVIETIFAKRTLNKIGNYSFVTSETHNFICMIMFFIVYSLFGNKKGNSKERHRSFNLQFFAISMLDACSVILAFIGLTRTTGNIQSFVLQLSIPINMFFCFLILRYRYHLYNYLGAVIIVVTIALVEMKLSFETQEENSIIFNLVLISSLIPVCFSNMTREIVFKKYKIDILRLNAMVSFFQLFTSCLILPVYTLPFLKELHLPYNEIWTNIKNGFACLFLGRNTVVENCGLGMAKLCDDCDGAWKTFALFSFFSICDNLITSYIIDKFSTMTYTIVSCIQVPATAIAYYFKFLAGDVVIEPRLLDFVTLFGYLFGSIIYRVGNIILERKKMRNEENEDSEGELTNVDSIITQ
Kind of test: Radiolabeled drug uptake in X. laevis oocytes expressing PfCRT^Dd2_G353V. Format: cell-based. The text has this: (§1) A codon-optimized coding sequence of the Dd2 isoform of PfCRT (PfCRT^Dd2) was subcloned into the pSP64T expression vector [21]. To generate the necessary mutations to introduce the amino acid substitutions H97Y, F145I, M343L or G353V into the pfcrt sequence, the overlap extension method was used. A region from the 5’-untranslated Xenopus β-globin sequence to the respective 3’ region, containing the full length pfcrt coding sequence, was amplified using the following primer pairs: for the H97Y mutation, numbers 1/4 and 2/3; for the F145I mutation, numbers 1/6 and 2/5; for the M343L mutation, numbers 1/8 and 2/7; and for the G353V mutation, numbers 1/10 and 2/9 (for primers, see S2 Table). Both PCR products were used as template for amplification of the final product using primers number 1/2. The resulting fragment was cloned into the pSP64T expression vector, and the presence of the desired mutation was confirmed by sequencing.
(§2) Adult female X. laevis frogs (purchased from NASCO) were anesthetized by submersion in a solution of 0.3% (w/v) 3-amino benzoate methanesulfonate for 15 min. Sections of the ovary were surgically removed and placed in Ca^2+-free ND96 buffer supplemented with 0.1% collagenase D (w/v; Roche), 0.5% BSA (w/v) and 9 mM Na2HPO4 at 18°C for 14–16 h while gently shaking. The oocytes were then washed several times with ND96 buffer (5 mM HEPES, pH 7.5, 96 mM NaCl, 2 mM KCl, 1.8 mM CaCl2, 1 mM MgCl2), supplemented with […] gentamycin. Healthy-looking stage V-VI oocytes were manually selected and randomly grouped for injection. A codon-optimized coding sequence of PfCRT was subcloned into the pSP64T expression vector and subsequently linearized using the restriction endonuclease BamHI or SalI (New England Biolabs GmbH). RNA for injection was transcribed in vitro using the mMESSAGE mMACHINE SP6 Transcription kit (Ambion), diluted with nuclease-free water to a final concentration of 0.6 μg/μL and stored at -80°C. RNA was injected using precision-bore glass capillary tubes (3.5-inch glass capillaries; Drummond Scientific Co.), which were pulled on a vertical puller (P-87 Flaming/Brown micropipette puller, Sutter Instrument Co.) and graduated. The micropipettes were connected to a microinjector (Nanoject II Auto-Nanoliter Injector, Drummond Scientific Co.). Injection was conducted under stereomicroscopic control. 50 nL of nuclease-free water alone (control oocytes) or 50 nL of nuclease-free water containing 30 ng of RNA was injected per oocyte. Injected oocytes were kept for 72 h at 18°C in ND96 buffer with two daily buffer changes before being used for further experiments.
(§3) Drug transport assays were performed as previously described. Briefly, measurements of radiolabeled drug uptake were made over 1 h, unless otherwise specified. […] Where specified, one or more unlabeled drugs were also present at the indicated concentrations. […] The uptake assays were terminated by removing the oocytes from the reaction medium and washing them three times with 2 mL of ice-cold ND96 buffer. Each oocyte was transferred to a separate scintillation vial and lysed by the addition of 200 μL of a 5% SDS solution. The radioactivity in the sample was measured using a liquid scintillation analyser Tri-Carb 4910 TR (PerkinElmer). Water-injected oocytes were analyzed in parallel as a negative control. The buffer from each condition was measured in duplicate in parallel to each experiment to transform counts per minute into pmol of drug. Drug uptake attributable to PfCRT was determined by subtracting the background uptake from water-injected oocytes from that of PfCRT-expressing oocytes. In all cases, at least three independent experiments were performed on oocytes from different frogs, and for each condition in an experiment, measurements were made from 10 oocytes per treatment.

The target of another test is T2, PfCRT^Dd2_M343L (Plasmodium falciparum, UniProt Q8IBZ9, A220S/I356T/K76T/M343L/M74I/N326S/N75E/Q271E/R371I).
T2 construct: expressed in transfected cells; host or cells: Xenopus laevis oocytes injected with in vitro transcribed RNA (pSP64T)
T2 sequence (Q8IBZ9 1-424 M74I/N75E/K76T/A220S/Q271E/N326S/M343L/I356T/R371I): T1 sequence (Q8IBZ9 1-424 M74I/N75E/K76T/A220S/Q271E/N326S/G353V/I356T/R371I) with M343L, V353G
Kind of test: Radiolabeled drug uptake in X. laevis oocytes expressing PfCRT^Dd2_M343L. Format: cell-based.
Excerpt: as §1, §2, §3

Setting [1] is: Michaelis-Menten fit, 10-500 μM drug, pH 6.
[2] abbreviates: Michaelis-Menten fit, 10-500 μM drug, pH 6, read-out: KM, Michaelis constant.

`CCN(CC)CCCC(C)Nc1ccnc2cc(Cl)ccc12` (stereo not drawn) [CQ, chloroquine]: at PfCRT^Dd2_G353V (10 µM CQ, single replicates), the “PfCRTDd2_G353V-mediated CQ uptake at 10 µM CQ” value is 0.74 pmol oocyte-1 h-1 and 0.50 pmol oocyte-1 h-1 and 0.07 pmol oocyte-1 h-1. Besides, on PfCRT^Dd2_G353V (50 µM CQ, single replicates), the “PfCRTDd2_G353V-mediated CQ uptake at 50 µM CQ” value is 4.74 pmol oocyte-1 h-1 and 5.01 pmol oocyte-1 h-1 and 2.88 pmol oocyte-1 h-1 and 3.92 pmol oocyte-1 h-1 and 4.76 pmol oocyte-1 h-1. Also, the “PfCRTDd2_G353V-mediated CQ uptake at 100 µM CQ” value on PfCRT^Dd2_G353V (100 µM CQ, single replicates) was 7.26 pmol oocyte-1 h-1 and 6.49 pmol oocyte-1 h-1 and 5.26 pmol oocyte-1 h-1. The “PfCRTDd2_G353V-mediated CQ uptake at 300 µM CQ” value at PfCRT^Dd2_G353V (300 µM CQ, single replicates) was 16.30 pmol oocyte-1 h-1 and 8.52 pmol oocyte-1 h-1 and 8.09 pmol oocyte-1 h-1. On PfCRT^Dd2_G353V (500 µM CQ, single replicates), the “PfCRTDd2_G353V-mediated CQ uptake at 500 µM CQ” value was 17.15 pmol oocyte-1 h-1 and 14.95 pmol oocyte-1 h-1 and 14.10 pmol oocyte-1 h-1. For the same molecule, the “Vmax, maximal velocity of drug transport” value on PfCRT^Dd2_G353V (setting [1]) is recorded as 23 ± 3 pmol oocyte^-1 h^-1; on PfCRT^Dd2_M343L (setting [1]) it was 31 ± 2 pmol oocyte^-1 h^-1. Moreover, the “PfCRTDd2_M343L-mediated CQ uptake at 10 µM CQ” value at PfCRT^Dd2_M343L (10 µM CQ, single replicates) is 1.16 pmol oocyte-1 h-1 and 0.62 pmol oocyte-1 h-1 and 0.22 pmol oocyte-1 h-1. In addition, the “PfCRTDd2_M343L-mediated CQ uptake at 50 µM CQ” value on PfCRT^Dd2_M343L (50 µM CQ, single replicates) is 2.13 pmol oocyte-1 h-1 and 3.20 pmol oocyte-1 h-1 and 2.38 pmol oocyte-1 h-1 and 2.37 pmol oocyte-1 h-1. Further, the “PfCRTDd2_M343L-mediated CQ uptake at 100 µM CQ” value at PfCRT^Dd2_M343L (100 µM CQ, single replicates) is 5.08 pmol oocyte-1 h-1 and 4.43 pmol oocyte-1 h-1 and 5.13 pmol oocyte-1 h-1. In addition, on PfCRT^Dd2_M343L (300 µM CQ, single replicates), the “PfCRTDd2_M343L-mediated CQ uptake at 300 µM CQ” value is 10.45 pmol oocyte-1 h-1 and 11.10 pmol oocyte-1 h-1 and 13.47 pmol oocyte-1 h-1. In addition, on PfCRT^Dd2_M343L (500 µM CQ, single replicates), the “PfCRTDd2_M343L-mediated CQ uptake at 500 µM CQ” value was 14.93 pmol oocyte-1 h-1 and 14.77 pmol oocyte-1 h-1 and 15.77 pmol oocyte-1 h-1.
In general, Km refers to the substrate concentration at which the rate is half of its maximum. For `Clc1ccc2c(N3CCN(CCCN4CCN(c5ccnc6cc(Cl)ccc56)CC4)CC3)ccnc2c1` [PPQ, piperaquine], the “PfCRTDd2_G353V-mediated PPQ uptake at 10 µM PPQ” value at PfCRT^Dd2_G353V (10 µM PPQ, single replicates) was 5.31 pmol oocyte-1 h-1 and 5.17 pmol oocyte-1 h-1 and 3.93 pmol oocyte-1 h-1. Moreover, the “PfCRTDd2_G353V-mediated PPQ uptake at 50 µM PPQ” value on PfCRT^Dd2_G353V (50 µM PPQ, single replicates) is 29.38 pmol oocyte-1 h-1 and 45.38 pmol oocyte-1 h-1 and 21.36 pmol oocyte-1 h-1 and 40.00 pmol oocyte-1 h-1 and 56.34 pmol oocyte-1 h-1 and 56.46 pmol oocyte-1 h-1 and 95.52 pmol oocyte-1 h-1 and 62.83 pmol oocyte-1 h-1. Besides, the “PfCRTDd2_G353V-mediated PPQ uptake at 100 µM PPQ” value on PfCRT^Dd2_G353V (100 µM PPQ, single replicates) is 105.67 pmol oocyte-1 h-1 and 52.72 pmol oocyte-1 h-1 and 63.14 pmol oocyte-1 h-1. For the same molecule, the “PfCRTDd2_G353V-mediated PPQ uptake at 300 µM PPQ” value on PfCRT^Dd2_G353V (300 µM PPQ, single replicates) is 116.72 pmol oocyte-1 h-1 and 65.87 pmol oocyte-1 h-1 and 109.27 pmol oocyte-1 h-1. On PfCRT^Dd2_G353V (500 µM PPQ, single replicates), the “PfCRTDd2_G353V-mediated PPQ uptake at 500 µM PPQ” value was 126.72 pmol oocyte-1 h-1 and 99.20 pmol oocyte-1 h-1 and 126.01 pmol oocyte-1 h-1. Moreover, the Km at PfCRT^Dd2_G353V (setting [2]) was found to be 90 ± 20 µM; on PfCRT^Dd2_M343L (setting [2]) it was 80 ± 16 µM. Further, the “PfCRTDd2_M343L-mediated PPQ uptake at 10 µM PPQ” value at PfCRT^Dd2_M343L (10 µM PPQ, single replicates) was 13.08 pmol oocyte-1 h-1 and 6.84 pmol oocyte-1 h-1 and 2.69 pmol oocyte-1 h-1. Further, the “PfCRTDd2_M343L-mediated PPQ uptake at 50 µM PPQ” value at PfCRT^Dd2_M343L (50 µM PPQ, single replicates) is 84.22 pmol oocyte-1 h-1 and 103.15 pmol oocyte-1 h-1 and 60.92 pmol oocyte-1 h-1 and 65.48 pmol oocyte-1 h-1 and 62.52 pmol oocyte-1 h-1 and 18.03 pmol oocyte-1 h-1. Also, the “PfCRTDd2_M343L-mediated PPQ uptake at 100 µM PPQ” value at PfCRT^Dd2_M343L (100 µM PPQ, single replicates) was 130.36 pmol oocyte-1 h-1 and 98.93 pmol oocyte-1 h-1 and 50.24 pmol oocyte-1 h-1. In addition, the “PfCRTDd2_M343L-mediated PPQ uptake at 300 µM PPQ” value at PfCRT^Dd2_M343L (300 µM PPQ, single replicates) was 154.89 pmol oocyte-1 h-1 and 102.01 pmol oocyte-1 h-1 and 116.02 pmol oocyte-1 h-1. In addition, the “PfCRTDd2_M343L-mediated PPQ uptake at 500 µM PPQ” value at PfCRT^Dd2_M343L (500 µM PPQ, single replicates) was 164.14 pmol oocyte-1 h-1 and 130.73 pmol oocyte-1 h-1 and 130.95 pmol oocyte-1 h-1.
